Experimental findings from patent publication US7868026B2, “Therapeutic compounds” (Pfizer Inc., priority 2005, dated 2011) are described below.

Each structure is given as a SMILES string. Some results are limits rather than exact numbers.

In one assay the target is T1, CYP3A4 (Homo sapiens, UniProt P08684). Put plainly: Determination of IC50 against CYP3A4 by measurement of inhibition of testosterone metabolism (human liver microsomes, 6-β-OH-testosterone by LC-MS/MS). The format is biochemical. Also noted: 0.1 mg/mL human liver microsomes. The conditions noted are these: read-out: IC50 (Testo.). The protocol: 2. Determination of IC50 Against CYP3A4 by Measurement of Inhibition of Testosterone Metabolism
T1 sequence (P08684 whole entry): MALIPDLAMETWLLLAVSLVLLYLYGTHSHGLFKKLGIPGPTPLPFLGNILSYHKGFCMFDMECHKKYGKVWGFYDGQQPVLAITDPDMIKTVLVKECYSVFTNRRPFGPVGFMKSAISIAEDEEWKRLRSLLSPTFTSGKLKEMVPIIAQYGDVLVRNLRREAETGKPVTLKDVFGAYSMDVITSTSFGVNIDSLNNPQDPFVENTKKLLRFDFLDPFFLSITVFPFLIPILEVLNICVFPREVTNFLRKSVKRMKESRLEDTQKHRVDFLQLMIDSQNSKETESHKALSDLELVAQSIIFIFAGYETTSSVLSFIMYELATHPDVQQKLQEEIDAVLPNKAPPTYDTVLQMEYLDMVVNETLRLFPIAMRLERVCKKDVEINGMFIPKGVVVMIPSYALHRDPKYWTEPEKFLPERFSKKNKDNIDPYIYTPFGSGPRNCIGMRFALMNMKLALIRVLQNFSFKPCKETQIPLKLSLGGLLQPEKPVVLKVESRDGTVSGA
This assay was performed using a standard 96 well plate design. […] The incubation substrate mix contains 25 μM testosterone, 0.1 mg/mL human liver microsomes, 1 mM NADPH, and potassium phosphate buffer (100 mM, pH 7.4). Quantitation of metabolite peak area ratio against an internal standard is determined by LC-MS/MS analysis. The production of 6-β-OH-testosterone from testosterone metabolism is determined after incubation for eight minutes by comparison to a standard curve generated for the metabolite
Samples were analyzed in the MRM mode using a Sciex API 3000 mass spectrometer (Applied Biosystems, Foster City, Calif.) with a Paradigm MS4 binary pump (Michrom BioResources Inc., Auburn, Calif.) and a LEAP CTC PAL autosampler (LEAP Technologies, Carrboro, N.C.). A Phenomenex Synergi, 4μ, Polar-RP, 10×2.0 mm column (Phenomenex, Torrance, Calif.) was used for separation with a mobile phase composition of: 0.1% formic acid in water (A) and: 0.1% formic acid in methanol (B). The following gradient was used: […]
The sample injection volume was 10 μL and flow was split post-column with 0.4 mL/min going to the mass spectrometer. Analysis was performed using the following API 3000 mass spectrometer settings: […]
Consider `CCCN(CC1CC1)C(=O)c1ccccc1S(=O)(=O)Nc1cccnc1` [Example 54, N-(cyclopropylmethyl)-N-propyl-2-[(pyridin-3-ylamino)sulfonyl]benzamide], for which the concentration for half-maximal inhibition (IC50) came out at 26 nM.
For `CN(Cc1ccccc1)C(=O)c1ccccc1S(=O)(=O)Nc1cccnc1` [Example 55, N-benzyl-N-methyl-2-[(pyridin-3-ylamino)sulfonyl]benzamide], the IC50 was 54.5 nM.
With `O=C(NCCOc1ccccc1)c1ccccc1S(=O)(=O)Nc1cccnc1` [Example 56, N-(2-phenoxyethyl)-2-[(pyridin-3-ylamino)sulfonyl]benzamide], the IC50 came out at 62 nM.
With `COc1ccc(CNC(=O)c2ccccc2S(=O)(=O)Nc2cccnc2)cc1` [Example 57, N-(4-methoxybenzyl)-2-[(pyridin-3-ylamino)sulfonyl]benzamide], the IC50 stood at 93.3 nM.
Turning to `O=C(NC1Cc2ccccc2C1)c1ccccc1S(=O)(=O)Nc1cccnc1` [Example 58, N-(2,3-dihydro-1H-inden-2-yl)-2-[(pyridin-3-ylamino)sulfonyl]benzamide], the IC50 amounted to 25.3 nM.
In the case of `CCCCOCCCNC(=O)c1ccccc1S(=O)(=O)Nc1cccnc1` [Example 59, N-(3-butoxypropyl)-2-[(pyridin-3-ylamino)sulfonyl]benzamide], the IC50 was found to be 117 nM.
For the compound `COc1cccc(CCNC(=O)c2ccccc2S(=O)(=O)Nc2cccnc2)c1` [Example 60, N-[2-(3-methoxyphenyl)ethyl]-2-[(pyridin-3-ylamino)sulfonyl]benzamide], the IC50 was 24 nM.
For `CCCCCNC(=O)c1ccccc1S(=O)(=O)Nc1cccnc1` [Example 61, N-pentyl-2-[(pyridin-3-ylamino)sulfonyl]benzamide], the IC50 came out at 30.2 nM.
As for `O=C(c1ccccc1S(=O)(=O)Nc1cccnc1)N1CCN(c2ccccn2)CC1` [Example 62, N-pyridin-3-yl-2-[(4-pyridin-2-ylpiperazin-1-yl)carbonyl]benzenesulfonamide], the IC50 worked out at 211 nM.
For `CCCCNC(=O)c1ccccc1S(=O)(=O)Nc1cccnc1` [Example 63, N-butyl-2-[(pyridin-3-ylamino)sulfonyl]benzamide], the IC50 is 84.1 nM.
The same measure, in the same setting: next, `O=C(NCC1CCCC1)c1ccccc1S(=O)(=O)Nc1cccnc1` [Example 64, N-(cyclopentylmethyl)-2-[(pyridin-3-ylamino)sulfonyl]benzamide]: 31.8 nM; `O=C(NC1CCC1)c1ccccc1S(=O)(=O)Nc1cccnc1` [Example 65, N-cyclobutyl-2-[(pyridin-3-ylamino)sulfonyl]benzamide]: 214 nM.
The same measure, in the same setting: next, `O=C(NCCc1ccccn1)c1ccccc1S(=O)(=O)Nc1cccnc1` [Example 66, 2-[(pyridin-3-ylamino)sulfonyl]-N-(2-pyridin-2-ylethyl)benzamide]: 302 nM.
As to `O=C(c1ccccc1S(=O)(=O)Nc1cccnc1)N1CCCCC1` [Example 67, 2-(piperidin-1-ylcarbonyl)-N-pyridin-3-ylbenzenesulfonamide], the IC50 came to 247 nM.

A further assay has as its target T1, CYP3A4. The assay is described as follows: Determination of IC50 against CYP3A4 by measurement of inhibition of midazolam metabolism (human liver microsomes, 1-hydroxymidazolam by LC-MS/MS). Details: 0.1 mg/mL human liver microsomes. Conditions: 2 μM midazolam, 0.1 mg/mL human liver microsomes. It is filed as biochemical. An outline of the steps: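 Human liver microsomes (0.1 mg/mL) incubated 8 min with 2 μM midazolam and 1 mM NADPH in 100 mM potassium phosphate, pH 7.4. 1-Hydroxymidazolam quantified by LC-MS/MS (MRM) as peak area ratio to internal standard against a metabolite standard curve.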
As for `CCCN(CC1CC1)C(=O)c1ccccc1S(=O)(=O)Nc1cccnc1` [Example 54, N-(cyclopropylmethyl)-N-propyl-2-[(pyridin-3-ylamino)sulfonyl]benzamide], the IC50 worked out at 15 nM.
For the compound `CN(Cc1ccccc1)C(=O)c1ccccc1S(=O)(=O)Nc1cccnc1` [Example 55, N-benzyl-N-methyl-2-[(pyridin-3-ylamino)sulfonyl]benzamide], the 50% inhibitory concentration (IC50) came out at 40.6 nM.
On to `O=C(NCCOc1ccccc1)c1ccccc1S(=O)(=O)Nc1cccnc1` [Example 56, N-(2-phenoxyethyl)-2-[(pyridin-3-ylamino)sulfonyl]benzamide], for which the IC50 turned out to be 48.9 nM.
Still for that read-out and setting: for `COc1ccc(CNC(=O)c2ccccc2S(=O)(=O)Nc2cccnc2)cc1` [Example 57, N-(4-methoxybenzyl)-2-[(pyridin-3-ylamino)sulfonyl]benzamide] the value was 69.6 nM; for `O=C(NC1Cc2ccccc2C1)c1ccccc1S(=O)(=O)Nc1cccnc1` [Example 58, N-(2,3-dihydro-1H-inden-2-yl)-2-[(pyridin-3-ylamino)sulfonyl]benzamide], 26.5 nM.
As to `CCCCOCCCNC(=O)c1ccccc1S(=O)(=O)Nc1cccnc1` [Example 59, N-(3-butoxypropyl)-2-[(pyridin-3-ylamino)sulfonyl]benzamide], the IC50 was found to be 109 nM.
For the compound `COc1cccc(CCNC(=O)c2ccccc2S(=O)(=O)Nc2cccnc2)c1` [Example 60, N-[2-(3-methoxyphenyl)ethyl]-2-[(pyridin-3-ylamino)sulfonyl]benzamide], the IC50 worked out at 17 nM.
Regarding `CCCCCNC(=O)c1ccccc1S(=O)(=O)Nc1cccnc1` [Example 61, N-pentyl-2-[(pyridin-3-ylamino)sulfonyl]benzamide], the IC50 turned out to be 26.8 nM.
For the compound `O=C(c1ccccc1S(=O)(=O)Nc1cccnc1)N1CCN(c2ccccn2)CC1` [Example 62, N-pyridin-3-yl-2-[(4-pyridin-2-ylpiperazin-1-yl)carbonyl]benzenesulfonamide], the IC50 turned out to be 184 nM.
With `CCCCNC(=O)c1ccccc1S(=O)(=O)Nc1cccnc1` [Example 63, N-butyl-2-[(pyridin-3-ylamino)sulfonyl]benzamide], the IC50 is 84.2 nM.
Turning to `O=C(NCC1CCCC1)c1ccccc1S(=O)(=O)Nc1cccnc1` [Example 64, N-(cyclopentylmethyl)-2-[(pyridin-3-ylamino)sulfonyl]benzamide], the half-inhibitory concentration (IC50) worked out at 30.5 nM.
The same measure, in the same setting: for `O=C(NC1CCC1)c1ccccc1S(=O)(=O)Nc1cccnc1` [Example 65, N-cyclobutyl-2-[(pyridin-3-ylamino)sulfonyl]benzamide] the value was 254 nM; for `O=C(NCCc1ccccn1)c1ccccc1S(=O)(=O)Nc1cccnc1` [Example 66, 2-[(pyridin-3-ylamino)sulfonyl]-N-(2-pyridin-2-ylethyl)benzamide], 146 nM.
As to `O=C(c1ccccc1S(=O)(=O)Nc1cccnc1)N1CCCCC1` [Example 67, 2-(piperidin-1-ylcarbonyl)-N-pyridin-3-ylbenzenesulfonamide], the concentration for half-maximal inhibition (IC50) stood at 110 nM.

The target in another assay is T1, CYP3A4. Put plainly: Determination of compound Kiapp against recombinant CYP3A4 enzyme (BFC fluorescent substrate). It is filed as biochemical. Conditions: Baculo. enzyme preparation, read-out: Kiapp (BFC, Baculo.). An outline of the steps:
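Kiapp derived from initial velocities over the first 5 min of BFC (5 uM) oxidation, using Morrison's tight-binding equation for non-partial and Szedlacsek's for partial inhibitors. Inhibitor first pre-incubated ≥30 min with CYP3A4 (5.5 or 8 nM, ±b5) in pH 7.0 phosphate/TCEP/2% DMF at room temperature; 200 uM NADPH initiated.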
`CCCN(CC1CC1)C(=O)c1ccccc1S(=O)(=O)Nc1cccnc1` [Example 54, N-(cyclopropylmethyl)-N-propyl-2-[(pyridin-3-ylamino)sulfonyl]benzamide]: the Ki came out at 239 nM.
For `CN(Cc1ccccc1)C(=O)c1ccccc1S(=O)(=O)Nc1cccnc1` [Example 55, N-benzyl-N-methyl-2-[(pyridin-3-ylamino)sulfonyl]benzamide], the Ki amounted to 385 nM.
As for `O=C(NCCOc1ccccc1)c1ccccc1S(=O)(=O)Nc1cccnc1` [Example 56, N-(2-phenoxyethyl)-2-[(pyridin-3-ylamino)sulfonyl]benzamide], the Ki is 340 nM.
In the case of `COc1ccc(CNC(=O)c2ccccc2S(=O)(=O)Nc2cccnc2)cc1` [Example 57, N-(4-methoxybenzyl)-2-[(pyridin-3-ylamino)sulfonyl]benzamide], the Ki amounted to 353 nM.
As for `O=C(NC1Cc2ccccc2C1)c1ccccc1S(=O)(=O)Nc1cccnc1` [Example 58, N-(2,3-dihydro-1H-inden-2-yl)-2-[(pyridin-3-ylamino)sulfonyl]benzamide], the Ki was 150 nM.
In the case of `CCCCOCCCNC(=O)c1ccccc1S(=O)(=O)Nc1cccnc1` [Example 59, N-(3-butoxypropyl)-2-[(pyridin-3-ylamino)sulfonyl]benzamide], the Ki amounted to 838 nM.
As to `COc1cccc(CCNC(=O)c2ccccc2S(=O)(=O)Nc2cccnc2)c1` [Example 60, N-[2-(3-methoxyphenyl)ethyl]-2-[(pyridin-3-ylamino)sulfonyl]benzamide], the Ki turned out to be 151 nM.
As for `CCCCCNC(=O)c1ccccc1S(=O)(=O)Nc1cccnc1` [Example 61, N-pentyl-2-[(pyridin-3-ylamino)sulfonyl]benzamide], the Ki was 131 nM.
The same measure, in the same setting: for `O=C(c1ccccc1S(=O)(=O)Nc1cccnc1)N1CCN(c2ccccn2)CC1` [Example 62, N-pyridin-3-yl-2-[(4-pyridin-2-ylpiperazin-1-yl)carbonyl]benzenesulfonamide] the value was over 1000 nM; for `CCCCNC(=O)c1ccccc1S(=O)(=O)Nc1cccnc1` [Example 63, N-butyl-2-[(pyridin-3-ylamino)sulfonyl]benzamide], 449 nM.
On to `O=C(NCC1CCCC1)c1ccccc1S(=O)(=O)Nc1cccnc1` [Example 64, N-(cyclopentylmethyl)-2-[(pyridin-3-ylamino)sulfonyl]benzamide], for which the Ki was 190 nM.
Consider `O=C(NC1CCC1)c1ccccc1S(=O)(=O)Nc1cccnc1` [Example 65, N-cyclobutyl-2-[(pyridin-3-ylamino)sulfonyl]benzamide], for which the Ki amounted to 920 nM.
As to `O=C(NCCc1ccccn1)c1ccccc1S(=O)(=O)Nc1cccnc1` [Example 66, 2-[(pyridin-3-ylamino)sulfonyl]-N-(2-pyridin-2-ylethyl)benzamide], the Ki is over 1000 nM.
For `O=C(c1ccccc1S(=O)(=O)Nc1cccnc1)N1CCCCC1` [Example 67, 2-(piperidin-1-ylcarbonyl)-N-pyridin-3-ylbenzenesulfonamide], the Ki worked out at 844 nM.

The same assay, now with this note: Super. enzyme preparation, read-out: Kiapp (BFC, Super.).
Turning to `CN(Cc1ccccc1)C(=O)c1ccccc1S(=O)(=O)Nc1cccnc1` [Example 55, N-benzyl-N-methyl-2-[(pyridin-3-ylamino)sulfonyl]benzamide], the Ki worked out at 14.2 nM.
`O=C(NCCOc1ccccc1)c1ccccc1S(=O)(=O)Nc1cccnc1` [Example 56, N-(2-phenoxyethyl)-2-[(pyridin-3-ylamino)sulfonyl]benzamide]: the Ki is 22.4 nM.
Take `COc1ccc(CNC(=O)c2ccccc2S(=O)(=O)Nc2cccnc2)cc1` [Example 57, N-(4-methoxybenzyl)-2-[(pyridin-3-ylamino)sulfonyl]benzamide]: the Ki came out at 35 nM.
In the case of `O=C(NC1Cc2ccccc2C1)c1ccccc1S(=O)(=O)Nc1cccnc1` [Example 58, N-(2,3-dihydro-1H-inden-2-yl)-2-[(pyridin-3-ylamino)sulfonyl]benzamide], the Ki stood at 9.1 nM.
`CCCCOCCCNC(=O)c1ccccc1S(=O)(=O)Nc1cccnc1` [Example 59, N-(3-butoxypropyl)-2-[(pyridin-3-ylamino)sulfonyl]benzamide]: the Ki came out at 57.4 nM.
For `CCCCCNC(=O)c1ccccc1S(=O)(=O)Nc1cccnc1` [Example 61, N-pentyl-2-[(pyridin-3-ylamino)sulfonyl]benzamide], the Ki amounted to 7.7 nM.
Take `O=C(c1ccccc1S(=O)(=O)Nc1cccnc1)N1CCN(c2ccccn2)CC1` [Example 62, N-pyridin-3-yl-2-[(4-pyridin-2-ylpiperazin-1-yl)carbonyl]benzenesulfonamide]: the Ki came out at 83.3 nM.
With `CCCCNC(=O)c1ccccc1S(=O)(=O)Nc1cccnc1` [Example 63, N-butyl-2-[(pyridin-3-ylamino)sulfonyl]benzamide], the Ki worked out at 42.4 nM.
Take `O=C(NCC1CCCC1)c1ccccc1S(=O)(=O)Nc1cccnc1` [Example 64, N-(cyclopentylmethyl)-2-[(pyridin-3-ylamino)sulfonyl]benzamide]: the Ki turned out to be 12.8 nM.
The same measure, in the same setting: for `O=C(NCCc1ccccn1)c1ccccc1S(=O)(=O)Nc1cccnc1` [Example 66, 2-[(pyridin-3-ylamino)sulfonyl]-N-(2-pyridin-2-ylethyl)benzamide] the value was 210 nM; for `O=C(c1ccccc1S(=O)(=O)Nc1cccnc1)N1CCCCC1` [Example 67, 2-(piperidin-1-ylcarbonyl)-N-pyridin-3-ylbenzenesulfonamide], 62 nM.
